Among the data in publication PMC6288363, “A Novel Selective JAK2 Inhibitor Identified Using Pharmacological Interactions” (Frontiers in Pharmacology, 2018) are Kd values, retold here.

The target of one assay is T1, JAK3 (Homo sapiens, UniProt P52333).
T1 sequence (P52333 1-1124): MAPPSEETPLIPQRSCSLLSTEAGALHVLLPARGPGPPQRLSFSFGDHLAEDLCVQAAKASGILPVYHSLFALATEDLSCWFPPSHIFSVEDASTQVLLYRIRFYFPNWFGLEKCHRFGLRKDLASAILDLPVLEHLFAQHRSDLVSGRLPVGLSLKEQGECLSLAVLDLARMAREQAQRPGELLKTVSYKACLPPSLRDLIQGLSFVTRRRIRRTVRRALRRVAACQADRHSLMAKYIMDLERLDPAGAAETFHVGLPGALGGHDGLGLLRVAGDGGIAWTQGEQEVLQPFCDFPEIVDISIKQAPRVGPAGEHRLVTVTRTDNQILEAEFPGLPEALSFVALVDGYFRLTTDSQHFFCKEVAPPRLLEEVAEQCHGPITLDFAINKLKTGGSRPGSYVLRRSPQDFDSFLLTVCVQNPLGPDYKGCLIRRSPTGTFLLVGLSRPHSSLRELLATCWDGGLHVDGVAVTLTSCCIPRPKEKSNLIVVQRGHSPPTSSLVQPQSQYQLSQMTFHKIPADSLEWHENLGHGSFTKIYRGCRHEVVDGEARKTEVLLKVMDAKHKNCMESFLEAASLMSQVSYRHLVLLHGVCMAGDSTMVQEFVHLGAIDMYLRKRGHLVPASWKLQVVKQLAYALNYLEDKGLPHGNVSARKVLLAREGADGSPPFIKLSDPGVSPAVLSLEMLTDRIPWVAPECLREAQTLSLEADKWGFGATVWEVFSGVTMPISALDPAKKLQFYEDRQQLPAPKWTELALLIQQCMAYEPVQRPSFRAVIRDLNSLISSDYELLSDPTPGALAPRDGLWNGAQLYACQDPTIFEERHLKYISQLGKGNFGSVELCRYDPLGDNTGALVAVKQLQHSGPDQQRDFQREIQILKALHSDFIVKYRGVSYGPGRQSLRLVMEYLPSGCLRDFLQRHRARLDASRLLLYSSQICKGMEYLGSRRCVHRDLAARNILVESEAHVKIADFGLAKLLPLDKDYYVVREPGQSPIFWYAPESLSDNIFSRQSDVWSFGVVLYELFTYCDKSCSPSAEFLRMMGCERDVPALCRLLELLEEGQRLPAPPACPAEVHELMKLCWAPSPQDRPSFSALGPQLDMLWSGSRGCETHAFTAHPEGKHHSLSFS
The assay can be described thus: KINOMEscan bead-based competition Kd. It counts as binding.

The next assay has as its target T2, JAK2 (Homo sapiens, UniProt O60674).
T2 construct: JH1 domain
The assay can be described thus: KINOMEscan bead-based competition Kd; also Z'LYTE kinase assay, […] inhibition at […]. It is filed as binding.

T2 sequence (O60674 840-1132 limits assumed): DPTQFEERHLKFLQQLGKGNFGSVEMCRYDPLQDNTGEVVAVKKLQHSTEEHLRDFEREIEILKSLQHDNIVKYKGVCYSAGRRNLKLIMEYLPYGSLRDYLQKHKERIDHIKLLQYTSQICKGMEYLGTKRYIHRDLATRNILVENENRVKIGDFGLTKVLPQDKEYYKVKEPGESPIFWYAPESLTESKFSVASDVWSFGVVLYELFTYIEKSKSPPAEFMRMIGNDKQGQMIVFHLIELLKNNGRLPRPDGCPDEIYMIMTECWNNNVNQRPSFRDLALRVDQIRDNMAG

As a reminder, the Kd is the free concentration of one partner at which half of the binding sites on the other are occupied at equilibrium, for simple one-to-one binding. Higher therefore signals lower affinity. Consider `CCN(CC)CC[C@H](CNc1ccnc2cc(Cl)ccc12)c1ccc(O)cc1` [NSC13626], for which the Kd on JAK3 came to 4.6 µM; at JAK2, 6.6 µM.
